Data reported in patent US10322995B2, “Substituted cyano cycloalkyl penta-2,4-dienes, cyano cycloalkyl pent-2-en-4-ynes, cyano heterocyclyl penta-2,4-dienes and cyano heterocyclyl pent-2-en-4-ynes as active substances against abiotic plant stress” (BAYER CROPSCIENCE AKTIENGESELLSCHAFT, priority 2014, dated 2019).

Key:
[1] = system: Triticum aestivum (TRZAS); experiment: In vivo analyses Part C: drought stress, appearance vs stressed control plants in categories (TRZAS); parameters: key: 0: no positive effect; 10: slight positive effect; 20: clear positive effect; 30: strong positive effect; details: appearance vs stressed control plants after recovery phase, efficacy range of 3-4 pots
Protocol: Seeds of monocotyledonous and dicotyledonous crop plants were sown in sandy loam in plastic or wood-fibre pots, covered with soil or sand and cultivated in a greenhouse under good growth conditions. The test plants were treated at the early leaf stage (BBCH10-BBCH13). To assure uniform water supply before commencement of stress, the potted plants were supplied with water by dam irrigation prior to substance application. The inventive compounds were first formulated as wettable powders (WP) or dissolved in a solvent mixture. The further dilution was effected with water supplemented with 0.2% wetting agent (e.g. agrotin). The finished spray liquor was sprayed onto the green parts of the plant at an equivalent water application rate of 600 I/ha. Substance application was followed immediately by stress treatment of the plants. For this purpose, the wood-fibre pots were transferred in plastic inserts in order to prevent them from subsequently drying out too quickly. Drought stress was induced by gradual drying out under the following conditions: “Day”: 14 hours with illumination at 26-30° C. “Night”: 10 hours without illumination at 18-20° C. The duration of the respective stress phases was guided mainly by the condition of the stressed control plants. It was ended (by re-irrigating and transfer to a greenhouse with good growth conditions) as soon as irreversible damage was observed on the stressed control plants. The end of the stress phase was followed by an about 4-7-day recovery phase, during which the plants were once again kept under good growth conditions in a greenhouse. The duration of the recovery phase was guided mainly by when the trial plants had attained a state which enabled visual scoring of potential effects, and was therefore variable. Once this juncture had been reached, the appearance of the plants treated with test substances was recorded in comparison to the stressed control plants by the following categories: [table] For each substance and dosage, 3-4 pots were treated and evaluated. TRZAS=Triticum aestivum

[2] = biological target: T1, phosphatase ABI1 via the co-regulator RCAR11/PYR1 (Arabidopsis thaliana, UniProt O49686+P49597); experiment: In vitro assay: inhibition of the phosphatase ABI1 via the co-regulator RCAR11/PYR1, MUP dephosphorylation, fluorescence; assay type: biochemical; parameters: inhibition: dose or concentration left out as unconfirmed; details: MUP dephosphorylation, fluorescence 460 nm; for ABI1 inhibition: concentration of 5 mM of the substance in a solution of DMSO and water; for inhibition: read-out: ABI1 inhibition
T1 sequence (O49686 1-191): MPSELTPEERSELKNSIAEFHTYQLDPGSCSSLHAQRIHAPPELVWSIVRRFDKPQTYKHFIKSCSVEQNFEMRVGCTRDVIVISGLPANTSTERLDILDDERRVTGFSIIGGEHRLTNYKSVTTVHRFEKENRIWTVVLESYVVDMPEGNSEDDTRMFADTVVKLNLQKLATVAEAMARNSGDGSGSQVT
T1 sequence (P49597 1-434): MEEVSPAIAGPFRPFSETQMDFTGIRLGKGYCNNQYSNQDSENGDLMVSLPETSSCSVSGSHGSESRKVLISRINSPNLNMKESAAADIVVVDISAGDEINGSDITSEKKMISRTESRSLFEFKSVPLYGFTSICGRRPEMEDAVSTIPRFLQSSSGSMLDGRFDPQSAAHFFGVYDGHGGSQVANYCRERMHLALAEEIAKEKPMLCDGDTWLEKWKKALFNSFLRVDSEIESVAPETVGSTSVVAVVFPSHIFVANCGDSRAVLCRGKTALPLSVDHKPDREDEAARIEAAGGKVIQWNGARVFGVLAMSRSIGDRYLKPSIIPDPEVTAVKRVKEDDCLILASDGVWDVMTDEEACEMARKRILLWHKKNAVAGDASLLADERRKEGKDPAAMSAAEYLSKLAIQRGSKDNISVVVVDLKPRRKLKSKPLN
Text: Effects of the phytohormone abscisic acid (ABA) on the behaviour of plants under abiotic stress and the mechanism of action of ABA are described in the literature (cf. Abrams et al, WO97/23441, Cutler, Park et al. Science, 2009, 324, 1068; Grill et al. Science, 2009, 324, 1064; Tanokura et al. Biophysics, 2011, 7, 123; Schroeder et al. Plant J. 2010, 61, 290). Therefore, it is possible with the aid of a suitable in vitro test system to derive a correlation between the action of ABA and the stress response of a plant under abiotic stress. Under drought stress, plants form the phytohormone abscisic acid (ABA). This binds, along with a co-regulator (Regulatory Component of ABA-Receptor=RCAR according to Grill et al. Science, 2009, 324, 1064 or PYR/PYL according to Cutler et al. Science, 2009, 324, 1068), to a phosphatase (e.g. ABI1, a type 2C protein phosphatase, also abbreviated to PP2C) and inhibits its activity. As a result, a “downstream” kinase (e.g. SnRK2) is no longer dephosphorylated. This kinase, which is thus active, via phosphorylation of transcription factors (e.g. AREB/ABF, vgl. Yoshida et al., Plant J. 2010, 61, 672), switches on a genetic protection programme to increase drought stress tolerance.
The assay described hereinafter utilizes the inhibition of the phosphatase ABI1 via the co-regulator RCAR11/PYR1 aus Arabidopsis thaliana.
For the determination of activity, the dephosphorylation of 4-methylumbelliferyl phosphate (MUP) was measured at 460 nm. The in vitro assay was conducted in Greiner 384-well PS microplates F-well, using two controls: a) dimethyl sulphoxide (DMSO) 0.5% (f.c.) and b) 5 μM (f.c.) abscisic acid (ABA). […] The substance solution thus obtained, if necessary, was stirred with esterase from porcine liver (EC 3.1.1.1) at room temperature for 3 h and centrifuged at 4000 rpm for 30 min. A total volume of 45 μl was introduced into each cavity of the microplate, having the following composition: • 1) 5 μl of substance solution, i.e. a) DMSO 5% or b) abscisic acid solution or c) the corresponding example compound of the general formula (I) dissolved in 5% DMSO. • 2) 20 μl of enzyme buffer mix, composed of a) 40% by vol. of enzyme buffer (10 ml contain equal proportions by volume of 500 mM Tris-HCl pH8, 500 mM NaCl, 3.33 mM MnCl2, 40 mM dithiothreitol (DTT)), b) 4% by vol. of ABI1 dilution (protein stock solution was diluted so as to give, after addition, a final concentration in the assay of 0.15 μg ABI1/well), c) 4% by vol. of RCAR11 dilution (enzyme stock was diluted so as to give, on addition of the dilution to the enzyme buffer mix, a final concentration in the assay of 0.30 μg enzyme/well), d) 5% by vol. of Tween20 (1%), e) 47% by vol. H2O bi-dist. • 3) 20 μl of substrate mix, composed of a) 10% by vol. of 500 mM Tris-HCl pH8, b) 10% by vol. of 500 mM NaCl, c) 10% by vol. of 3.33 mM MnCl2, d) 5% by vol. of 25 mM MUP, 5% by vol. of Tween20 (1%), 60% by vol. of H2O bi-dist.
Enzyme buffer mix and substrate mix were made up 5 minutes prior to the addition and warmed to a temperature of 35° C. On completion of pipetting of all the solutions and on completion of mixing, the plate was incubated at 35° C. for 20 minutes. Finally, a relative fluorescence measurement was made at 35° C. with a BMG Labtech “POLARstar Optima” microplate reader using a 340/10 nm excitation filter and a 460 nm emission filter. The efficacy of the compounds of the general formula (I) is reported in the table which follows using abscisic acid (No. 64) as comparative substance according to the following classification: ++++ (inhibition≥90%), +++ (90%>inhibition≥70%), ++ (70%>inhibition≥50%), +(50%>inhibition≥30%).
Effects of selected compounds of the general formula (I) in the above-described in vitro assay at a concentration of 5 mM of the substance of the general formula (I) in question in a solution of DMSO and water: […]

Brassica napus (BRSNS) = experiment: In vivo analyses Part B: drought stress, appearance vs stressed control plants in categories (BRSNS); parameters: key: 0: no positive effect; 10: slight positive effect; 20: clear positive effect; 30: strong positive effect; details: category vs stressed control plants, 2-3 pots
Protocol: Seeds of monocotyledonous and dicotyledonous crop plants were sown in sandy loam in plastic pots, covered with soil or sand and cultivated in a greenhouse under good growth conditions. The test plants were treated at the early leaf stage (BBCH10-BBCH13). To assure uniform water supply before commencement of stress, the potted plants were supplied with water by dam irrigation prior to substance application. The inventive compounds, formulated in the form of wettable powders (WP), were sprayed onto the green parts of the plants as an aqueous suspension at an equivalent water application rate of 600 I/ha with addition of 0.2% wetting agent (e.g. agrotin). Substance application was followed immediately by stress treatment of the plants. Drought stress was induced by gradual drying out under the following conditions: “Day”: 14 hours with illumination at 26-30° C. “Night”: 10 hours without illumination at 18-20° C. The duration of the respective stress phases was guided mainly by the condition of the stressed control plants. It was ended (by re-irrigating and transfer to a greenhouse with good growth conditions) as soon as irreversible damage was observed on the stressed control plants. The end of the stress phase was followed by an about 4-7-day recovery phase, during which the plants were once again kept under good growth conditions in a greenhouse. The duration of the recovery phase was guided mainly by when the trial plants had attained a state which enabled visual scoring of potential effects, and was therefore variable. Once this juncture had been reached, the appearance of the plants treated with test substances was recorded in comparison to the stressed control plants by the following categories: [table] In order to rule out any influence on the effects observed by any fungicidal or insecticidal action of the test compounds, it was additionally ensured that the tests proceeded without fungal infection or insect infestation. For each substance and dosage, 2-3 pots were treated and evaluated. BRSNS=Brassica napus

Compound | ABI1 inhibition [2] | Effect (TRZAS) ([1]; dosage 25 g/ha) | further results
CC/C(C#CC(O)(C(C)C)C1(C#N)CC1)=C/C(=O)NC1CC1 (stereo not shown) [I.1-157, (2Z)-6-(1-Cyanocyclopropyl)-N-cyclopropyl-3-ethyl-6-hydroxy-7-methyloct-2-en-4-ynamide] |  | 10 | 
CCOC(=O)C=C(C)C#CC(O)(C1(C#N)CC1)C12CC3CC(CC(C3)C1)C2 (racemic) [I.1-762] |  |  | Effect (TRZAS) ([1]; dosage 250 g/ha): 10
COC(=O)C=C(C#CC(O)(C1(C#N)CC1)C12CC3CC(CC(C3)C1)C2)C(F)(F)F (racemic) [I.1-752] |  | 10 | 
CCOC(=O)/C=C(\C#CC(O)(c1ccc(F)cc1)C1(C#N)CC1)CC (stereo not shown) [I.1-503, Ethyl (2Z)-6-(1-cyanocyclopropyl)-3-ethyl-6-(4-fluorophenyl)-6-hydroxyhex-2-en-4-ynoate] |  |  | Effect (BRSNS) (Brassica napus (BRSNS); spray application 25 g/ha): 20-30; inhibition [2]: > 90%
CC/C(C#CC(O)(C(C)C)C1(C#N)CC1)=C/C(=O)OCCOC (stereo not shown) [I.1-606, 2-Methoxyethyl (2Z)-6-(1-cyanocyclopropyl)-3-ethyl-6-hydroxy-7-methyloct-2-en-4-ynoate] |  |  | Effect (BRSNS) (Brassica napus (BRSNS); spray application 250 g/ha): 20; inhibition [2]: > 90%
CCOC(=O)C=C(C=CC(O)(C(C)C)C1(C#N)CC1)CC (racemic) [I.2-103] |  |  | Effect (TRZAS) ([1]; dosage 250 g/ha): 30
CCOC(=O)C=C(C#CC(O)(C1(C#N)CC1)C12CC3CC(CC(C3)C1)C2)C(F)(F)F (racemic) [I.1-753] |  | 10 | 
COC(=O)/C=C(\C=C\C(O)(C(C)C)C1(C#N)CC1)C(F)(F)F (stereo not shown) [I.2-120, Methyl (2E,4E)-6-(1-cyanocyclopropyl)-6-hydroxy-7-methyl-3-(trifluoro-methyl)octa-2,4-dienoate] |  |  | Effect (BRSNS) (Brassica napus (BRSNS); spray application 250 g/ha): 30; inhibition [2]: > 90%
CCC(C#CC(O)(C1(C#N)CC1)C12CC3CC(CC(C3)C1)C2)=CC(=O)OC (racemic) [I.1-738] |  | 10 | 
CC/C(C#CC(O)(c1ccc(F)cc1)C1(C#N)CC1)=C/C(=O)OC (stereo not shown) [I.1-502] | ++++ (inhibition≥90%) |  | Effect (BRSNS) (Brassica napus (BRSNS); spray application 250 g/ha): 20-30
CC/C(C#CC(O)(C(C)C)C1(C#N)CC1)=C/C(=O)OC (stereo not shown) [I.1-102] | ++++ (inhibition≥90%) |  | Effect (BRSNS) (Brassica napus (BRSNS); spray application 250 g/ha): 30

Continued, in another order:

ABI1 inhibition [2] | Compound | Effect (TRZAS) ([1]; dosage 25 g/ha) | further results
++++ (inhibition≥90%) | COC(=O)/C=C(\C#CC(O)(C1CCC1)C1(C#N)CC1)C(F)(F)F (stereo not shown) [I.1-662] | 10-20 | 
++++ (inhibition≥90%) | CCOC(=O)/C=C(/C)C#CC(O)(C1CCCCC1)C1(C#N)CC1 (stereo not shown) [I.1-702] |  | Effect (TRZAS) ([1]; dosage 250 g/ha): 10
++++ (inhibition≥90%) | CCOC(=O)C=C(C)C#CC(O)(C(CC)CC)C1(C#N)CC1 (racemic) [I.1-732] | 10 | 
